The source of these data is US12419307B2, “Mixtures comprising indazole pesticides” (FMC Corporation, priority 2019, dated 2025).

Assay type in all cases: in vivo
In assay [1] the test system is diamondback moth (Plutella xylostella L.). The assay is described as follows: Test E: diamondback moth control on mustard plants, contact and/or systemic, plant damage rating after 6 days. As for the experimental part:
(§1) The pest control protection afforded by the mixtures or compositions is not limited, however, to these species. The analysis of enhanced activity between the mixtures or compositions was determined using Colby's equation. The average % mortality data for the test compounds alone were inserted into the Colby's equation. If the observed (obs) average % mortality was higher than “p”, the expected (exp) % mortality, the mixture or composition had enhanced effects. If the observed average % mortality was equal to or lower than the expected mortality, the mixture or composition either had no enhanced effect. For bioassays where insect feeding damage was evaluated, enhanced activity is identified when the observed plant damage is less than the expected plant damage rating; ratings ranged between 0 (no damage) and 10 (dead plant) and each value was converted to a % plant protection. 100−(Obs Plant Damage*10)
For evaluating control of diamondback moth (Plutella xylostella L.) through contact and/or systemic means, each test unit consisted of a small open container with a 10- to 12-day-old mustard plant inside. Test compounds were formulated and sprayed with 3 replications as described for Test A. After spraying, the test units were allowed to dry for 1 hour before they were infested with 30-50 neonate larvae. A black, screened cap was placed on the top of each container. The test units were held for 6 days in a growth chamber at 24-25° C. and 70% relative humidity. Each test unit was then visually assessed for plant damage and rated 0-10, where 0=undamaged and 10=plant is dead; the results are listed in Tables 6a-b.

Assay [2] deals with Western Flower Thrips (Frankliniella occidentalis Pergande). The assay can be described thus: Test B: Western Flower Thrips control on bean plants, plant damage rating converted to % plant protection after 7 days. The settings on record: for Plant Damage (obs): Table 3a; for Plant Damage (obs) / Plant Protection (obs): applied alone; for Plant Protection (obs): Table 3c. As for the experimental part:
as §1
Thus, a plant given a plant damage rating of 3 out of 10 is equivalent to 70% plant protection In all of these tests, compounds of Formula I are Compounds 1 (Cpd 1), 2 (Cpd2), and 3 (Cpd3) and compounds of Formula II are compounds 4 (Cpd4) and 5 (Cpd 5).
For evaluating control of the Western Flower Thrips (Frankliniella occidentalis Pergande) through contact and/or systemic means, each test unit consisted of a small open container with a 5- to 7-day-old bean (var. Soleil) plant inside.
Test solutions were formulated and sprayed with 3 replications as described for Test A. After spraying, the test units were allowed to dry for 1 hour, 22 to 27 adult thrips were added to each unit and then a black, screened cap was placed on top. The test units were held for 7 days at 25° C. and 45-55% relative humidity. To evaluate the level of plant protection provided by each treatment, each test unit was then visually assessed for plant damage inflicted by insect feeding and rated 0-10, where 0=undamaged and 10=plant is dead; the results are listed in Tables 3a-g.

Assay [3] deals with cotton melon aphid (Aphis gossypii Glover). The assay is described as follows: Test D: cotton melon aphid control on okra plants, insect mortality after 6 days. The settings on record: Aphis gossypii, read-out: % Mortality (obs). As for the experimental part: The analysis of enhanced activity between the mixtures or compositions was determined using Colby's equation. The average % mortality data for the test compounds alone were inserted into the Colby's equation. If the observed (obs) average % mortality was higher than “p”, the expected (exp) % mortality, the mixture or composition had enhanced effects. If the observed average % mortality was equal to or lower than the expected mortality, the mixture or composition either had no enhanced effect. For bioassays where insect feeding damage was evaluated, enhanced activity is identified when the observed plant damage is less than the expected plant damage rating; ratings ranged between 0 (no damage) and 10 (dead plant) and each value was converted to a % plant protection. 100−(Obs Plant Damage*10)
For evaluating control of cotton melon aphid (Aphis gossypii Glover) through contact and/or systemic means, each test unit consisted of a small open container with a 6- to 7-day-old okra plant inside. This was pre-infested by placing on a leaf of the test plant 30 to 40 aphids on a piece of leaf excised from a culture plant (cut-leaf method). The […] moved onto the test plant as the leaf piece desiccated. After pre-infestation, the soil of the test unit was covered with a layer of sand.
Test compounds were formulated and sprayed as described for Test A. The applications were replicated three times. After spraying of the formulated test compounds, each test unit was allowed to dry for 1 hour and then a black, screened cap was placed on top. […]

Assay [4] relates to Potato Leafhopper (Empoasca fabae Harris). The assay can be described thus: Test C: Potato Leafhopper control on bean plants, insect mortality after 6 days. Particulars: read-out: % Mortality (obs). As for the experimental part:
as §1
For evaluating control of Potato Leafhopper (Empoasca fabae Harris) through contact and/or systemic means, each test unit consisted of a small open container with a 5- to 6-day-old Longio bean plant (primary leaves emerged) inside. White sand was added to the top of the soil, and one of the primary leaves was excised prior to application. Test compounds were formulated and sprayed with 3 replications as described for Test A. After spraying, the test units were allowed to dry for 1 hour before they were infested with 5 potato leafhoppers (18- to 21-day-old adults). A black, screened cap was placed on the top of each container. The test units were held for 6 days in a growth chamber at 19-21° C. and 50-70% relative humidity.

The test system of assay [5] is silverleaf whitefly (Bemisia argentifolii Bellows and Perring). The assay can be described thus: Test A: silverleaf whitefly control on cotton or soybean plants, spray, insect mortality after 13 days. The settings on record: Bemisia argentifolii, read-out: % Mortality (obs). As for the experimental part:
as §1
For evaluating control of silverleaf whitefly (Bemisia argentifolii Bellows and Perring) through contact and/or systemic means, each test unit consisted of a small open container with a 12- to 14-day-old cotton plant or 5-7 day old soybean plant inside. This was pre-infested by placing test units into cages containing adult whiteflies so that oviposition on the cotton leaves could occur. The adults were removed from the plants with an air-blast nozzle, and the test units were capped. The test units were then stored 2 to 3 days before spraying.
Test compounds were formulated using a solution containing 10% acetone, 90% water and 300 ppm Activator 90@ Spreader Lo-Foam Formula non-ionic surfactant containing alkylarylpolyoxyethylene, free fatty acids, glycols and 2-propanol (Loveland Industries, Inc.) to provide the desired concentration in ppm. Formulated test solutions were then applied in 1 mL volumes through a SUJ2 atomizer nozzle with ⅛ JJ custom body (Spraying Systems Co.) positioned 1.27 cm (0.5 inches) above the top of each test unit.
The results for all experimental compositions in this test were replicated three times. After spraying of the formulated test composition, each test unit was allowed to dry for 1 hour and the cap removed. The test units were held for 13 days in a growth chamber at 28° C. and 50-70% relative humidity.

In assay [6] the test system is corn planthopper (Peregrinus maidis (Ashmead)). The assay is described as follows: Test C: corn planthopper control on corn plants, insect mortality after 6 days. Particulars: Peregrinus maidis, 96 h, read-out: % Mortality (obs). As for the experimental part: as §1
For evaluating control of corn planthopper (Peregrinus maidis (Ashmead)) through contact and/or systemic means, the test unit consisted of a small open container with a 3-4-day-old corn (maize) plant inside. White sand was added to the top of the soil prior to application of the test compound.
Test compounds were formulated and sprayed at 250 and/or 50 ppm and/or 10 ppm. After spraying of the formulated test compound, the test units were allowed to dry for 1 h before they were post-infested with ˜15-20 nymphs (18-to-21-day-old). […]

Regarding `CNC(=O)c1cc(C#N)cc(C)c1NC(=O)c1cc(Br)nn1-c1ncccc1Cl` [Cyantraniliprole, 3-bromo-1-(3-chloro-2-pyridinyl)-N-[4-cyano-2-methyl-6-[(methylamino)carbonyl]phenyl]-1H-pyrazole-5-carboxamide, reference compound], the “Plant Protection (obs)” value in assay [1] (Table 6a, 0.013 ppm) came out at 73.3. Moreover, in assay [1] (Table 6a, 0.02 ppm), the “Plant Protection (obs)” value is 20.0. Besides, the “Plant Damage (obs)” value in assay [2] (0.08 ppm) turned out to be 6.7%. In addition, the “Plant Damage (obs)” value in assay [2] (0.28 ppm) is recorded as 43.3%. In assay [3], the mortality (commonly the share of the test organisms that died) at 0.06 ppm is 21.1% and the mortality at 0.12 ppm amounted to 45.1%. Also, in assay [4], the mortality at 1.75 ppm is 13.3% and the mortality at 3.3 ppm came to 28.6%. For the same molecule, in assay [5], the mortality at 3 ppm amounted to 29.1% and the mortality at 5.5 ppm was determined as 61.1%.

Turning to `O=[N+]([O-])NC1=NCCN1Cc1ccc(Cl)nc1` [Imidacloprid, imidacloprid, reference compound], in assay [6], the mortality at 0.09 ppm was found to be 29.2% and the mortality at 0.16 ppm was 20%. In assay [2] (6.4 ppm), the “Plant Protection (obs)” value is recorded as 66.7%. Besides, the “Plant Protection (obs)” value in assay [2] (10.9 ppm) is 86.7%. Besides, in assay [3], the mortality at 0.05 ppm came out at 33.3% and the mortality at 0.1 ppm is 6.7%. Besides, in assay [4], the mortality at 0.82 ppm is 53.3% and the mortality at 2.25 ppm amounted to 40%. Besides, in assay [5], the mortality at 15.1 ppm is 0% and the mortality at 21.15 ppm amounted to 24.7%.

Consider `CCOC(=O)OC1=C(c2cc(C)ccc2C)C(=O)N[C@]12CC[C@@H](OC)CC2` [Spirotetramat, spirotetramat, reference compound], for which the “Plant Protection (obs)” value came out at 73.3 in assay [1] (Table 6b, 83.2 ppm) and 80.0 in assay [1] (Table 6b, 150 ppm). Moreover, the pest or weed control at 100 ppm in assay [2] (Frankliniella occidentalis, 168 h, Table 3d, 100 ppm, read-out: Plant Protection (obs)) was 53.3%. Further, the pest or weed control at 250 ppm in assay [2] (Frankliniella occidentalis, 168 h, Table 3d, 250 ppm, read-out: Plant Protection (obs)) was found to be 73.3%. In addition, the mortality at 0.25 ppm in assay [3] (120 h) was found to be 21.1%. The mortality at 0.85 ppm in assay [3] (120 h) worked out at 45.1%. The mortality at 50 ppm in assay [4] is 28.6%; in assay [5], 2.1%. Further, the mortality at 250 ppm in assay [4] came to 73.3%; in assay [5] it was 34.4%.
